{
  "source": "patent US4870160A",
  "about": "“Polypeptides with laminin activity” (Regents of the University of Minnesota, priority 1987, dated 1989)",
  "key": {"[1]": {"test": "Heparin binding assay on nitrocellulose sheets (Example 1)", "settings": "peptide on nitrocellulose, 1 mg/ml to 1 μg/ml, 2 hours, FIG. 4", "experimental": "The assay for heparin binding utilizes nitrocellulose sheets as subtrata to bind peptides or proteins to be tested for heparin binding activity. Peptides 9 and 11-18 were solubilized in 50 mM NH3 HCO3 to form solutions of 1 mg/ml. Each solution was serially diluted 1:1 in the same buffer producing concentrations from 1 mg/ml to 1 μg/ml. Nitrocellulose sheets which had been presoaked in 50 mM NH3 HCO3 were placed in a 96 well dot blot apparatus (Bethesda Research Laboratories, Bethesda, MD, and 100 μl of various concentrations of each peptide were aspirated through the wells. Each well was then washed three times with binding buffer (10 mM Tris-HCl, pH 8.0, 0.15 M NaCl), and the filters were removed and allowed to air dry overnight. The filters were then equilibriated for 5 minutes at room temperature in binding buffer which contained 10 mM CaCl2. ^3 H-heparin was then diluted to a concentration of 50,000 cpm/ml in binding buffer (with Ca^++), and nitrocellulose sheets were incubated in the presence of this mixture for 2 hours. The filters were then washed four times with binding buffer, and air dried. The individual spots of samples were cut out of the nitrocellulose, immersed in scintillation fluid and bound heparin was quantitated with a Beckman LS-3801 liquid scintillation counter. […]"}, "[2]": {"test": "Heparin binding to peptides coated on 96-well plastic plates (Example 2)", "settings": "1 mg/ml to 1 μg/ml, two hours at 37° C., FIG. 5", "experimental": "In order to test the ability of the synthesized peptides (9 and 11-18) to bind to 96-well plastic plates (in which experiments with cultured cell lines can be performed), we did an experiment similar to that described above in Example 1. Stock solutions of peptides 9 and 11-18, laminin and BSA at a maximum concentration of 1 mg/ml were prepared and serially diluted in PBS+NaN3 producing final concentration from 1 mg/ml to 1 μg/ml. Fifty μl from each concentration was coated on the 96-well plates and left to dry overnight at 28° C. Then, wells were treated for two hours with […] of 2 mg/ml BSA in 6 mM phosphate, 100 mM NaCl, 68 μM CaCl2, pH 6.8 (wash buffer) in order to minimize non-specific binding. Next 50 μls of ^3 H-heparin (10 μg/ml) was added (50,000 cpm/well) for two hours at 37° C. The wells were then washed three times with wash buffer containing 0.05% Triton X-100 and finally they were incubated for thirty minutes at 60 C with 200 μl of 0.5 N NaOH and 1% SDS. The amount of ^3 H-heparin bound at each peptide concentration was quantitated as described above in Example 1."}},
  "note": "Peptide text beside a SMILES is read from it.",
  "data": [
    {"molecule": "CSCC[C@H](NC(=O)CNC(=O)[C@H](CCCCN)NC(=O)[C@H](CCC(=O)O)NC(=O)[C@H](Cc1ccccc1)NC(=O)[C@H](CS)NC(=O)[C@@H](NC(=O)[C@@H]1CCCN1C(=O)[C@H](CCCNC(=N)N)NC(=O)[C@@H]1CCCN1C(=O)[C@H](CC(C)C)NC(=O)[C@@H](NC(=O)[C@@H](NC(=O)[C@H](Cc1ccc(O)cc1)NC(=O)[C@@H](N)CCCNC(=N)N)C(C)C)C(C)C)C(C)C)C(=O)N[C@@H](CC(N)=O)C(=O)N[C@@H](Cc1ccc(O)cc1)C(=O)N[C@H](C(=O)N[C@H](C(=O)N[C@@H](CCCNC(=N)N)C(=O)O)C(C)C)[C@@H](C)O", "note": "[Peptide F9] (H-RYVVLPRPVCFEKGMNYTVR-OH)", "values": [
      {"measurement": "binding of ^3 H-heparin", "setting": "[1]", "result": "strongly bound ^3 H-heparin"},
      {"measurement": "binding of ^3 H-heparin", "setting": "[2]", "result": "bind heparin very well"}
    ]},
    {"molecule": "CC[C@H](C)[C@H](NC(=O)[C@H](CCCCN)NC(=O)[C@H](CC(C)C)NC(=O)[C@H](C)NC(=O)[C@H](CCCCN)NC(=O)[C@H](C)NC(=O)[C@H](CCCCN)NC(=O)[C@H](CCC(=O)O)NC(=O)[C@H](CC(C)C)NC(=O)[C@H](Cc1ccccc1)NC(=O)[C@H](CCCCN)NC(=O)[C@H](Cc1c[nH]cn1)NC(=O)[C@@H](NC(=O)[C@H](CCCNC(=N)N)NC(=O)[C@H](CC(N)=O)NC(=O)[C@@H](NC(=O)[C@H](CC(C)C)NC(=O)[C@@H](N)CCC(=O)O)[C@@H](C)O)[C@@H](C)O)C(=O)O", "note": "[Peptide F13, ELTNRTHKFLEKAKALKI] (H-ELTNRTHKFLEKAKALKI-OH)", "values": [
      {"measurement": "binding of ^3 H-heparin", "setting": "[1]", "result": "strongly bound ^3 H-heparin"},
      {"measurement": "binding of ^3 H-heparin", "setting": "[2]", "result": "binds heparin but less extensively"}
    ]}
  ]
}
